Numbers after ± are expanded uncertainties.

A short description of this series: refractive index (Na D-line) (dimensionless). Particulars: 298.15 K; 100 kPa; Liquid; Standard Abbe refractometry.
Broadly, the refractive index is a measure of how strongly the sample bends light. With `CC(=O)OCCC(C)C` [3-methylbutyl ethanoate], the refractive index was found to be 1.39852 ± 0.00037.

Take `OCc1ccccc1` [benzenemethanol]: the refractive index stood at 1.53876 ± 0.00037.

In the case of `C[S+](C)[O-]` [dimethyl sulfoxide], the refractive index is 1.47713 ± 0.00033.
